Results published in US20230265151A1, “GIP/GLP1 CO-AGONIST COMPOUNDS” (priority 2020, published 2023).
Like-named read-outs stand apart in the source and are kept apart here.

Experiments:
Format in all cases: cell-based
hGCGR = target: T1, hGCGR (Homo sapiens, UniProt P47871); test: Functional cAMP formation (HTRF) in HEK-293 clonal cells expressing hGCGR, 0.1% bovine casein, without or with 1.0% human serum albumin; settings: read-out: hGCGR EC50, nM (SEM, n)
T1 construct: expressed in transfected cells
T1 sequence (P47871 26-477): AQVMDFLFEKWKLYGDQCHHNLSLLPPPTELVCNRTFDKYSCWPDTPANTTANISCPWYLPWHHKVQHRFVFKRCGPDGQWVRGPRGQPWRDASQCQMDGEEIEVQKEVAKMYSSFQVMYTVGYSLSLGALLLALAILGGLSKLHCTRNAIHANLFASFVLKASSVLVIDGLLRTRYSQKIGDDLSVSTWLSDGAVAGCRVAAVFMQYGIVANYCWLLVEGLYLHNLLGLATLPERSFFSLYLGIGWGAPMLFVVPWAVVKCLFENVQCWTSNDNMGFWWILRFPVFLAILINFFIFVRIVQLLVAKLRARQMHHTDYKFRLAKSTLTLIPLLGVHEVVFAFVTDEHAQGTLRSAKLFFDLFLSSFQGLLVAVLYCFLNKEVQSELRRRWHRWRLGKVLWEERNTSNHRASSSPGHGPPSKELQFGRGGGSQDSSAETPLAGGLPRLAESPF
Method in brief: (§1)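 Readings of the HTRF 665/620 nm ratio, which falls as cAMP rises, were converted to nM cAMP using a standard curve after 30 min peptide exposure at 37° C.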

hGLP-1R = hGLP-1R (Homo sapiens, UniProt P43220); test: Functional cAMP formation (HTRF) in HEK-293 clonal cells expressing hGLP-1R, 0.1% bovine casein, without or with 1.0% human serum albumin; design: expressed in transfected cells; settings: for EC50: cAMP, read-out: hGLP-1R EC50, nM (SEM, n); for Emax: read-out: hGLP-1R Emax, % ± SEM
hGLP-1R, sequence (P43220 24-463): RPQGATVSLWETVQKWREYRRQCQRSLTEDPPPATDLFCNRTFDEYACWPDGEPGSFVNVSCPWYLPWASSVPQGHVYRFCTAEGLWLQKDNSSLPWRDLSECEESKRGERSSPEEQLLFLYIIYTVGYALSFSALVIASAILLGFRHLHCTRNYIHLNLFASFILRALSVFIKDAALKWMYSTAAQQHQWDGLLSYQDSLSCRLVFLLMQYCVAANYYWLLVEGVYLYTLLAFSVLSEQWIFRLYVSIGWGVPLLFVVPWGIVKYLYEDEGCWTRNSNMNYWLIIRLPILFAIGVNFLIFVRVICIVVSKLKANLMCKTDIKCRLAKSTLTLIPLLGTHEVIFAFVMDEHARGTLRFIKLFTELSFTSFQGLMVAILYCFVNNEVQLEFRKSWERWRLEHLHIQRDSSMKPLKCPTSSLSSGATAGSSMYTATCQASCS
Method in brief: as §1

hGIPR = target: T2, hGIPR (Homo sapiens, UniProt P48546); test: Functional cAMP formation (HTRF) in HEK-293 clonal cells expressing hGIPR, 0.1% bovine casein, without or with 1.0% human serum albumin; settings: for EC50: geometric mean, read-out: hGIPR EC50, nM (SEM, n); for Emax: read-out: hGIPR Emax, % ± SEM
T2 construct: expressed in transfected cells
T2 sequence (P48546 22-466): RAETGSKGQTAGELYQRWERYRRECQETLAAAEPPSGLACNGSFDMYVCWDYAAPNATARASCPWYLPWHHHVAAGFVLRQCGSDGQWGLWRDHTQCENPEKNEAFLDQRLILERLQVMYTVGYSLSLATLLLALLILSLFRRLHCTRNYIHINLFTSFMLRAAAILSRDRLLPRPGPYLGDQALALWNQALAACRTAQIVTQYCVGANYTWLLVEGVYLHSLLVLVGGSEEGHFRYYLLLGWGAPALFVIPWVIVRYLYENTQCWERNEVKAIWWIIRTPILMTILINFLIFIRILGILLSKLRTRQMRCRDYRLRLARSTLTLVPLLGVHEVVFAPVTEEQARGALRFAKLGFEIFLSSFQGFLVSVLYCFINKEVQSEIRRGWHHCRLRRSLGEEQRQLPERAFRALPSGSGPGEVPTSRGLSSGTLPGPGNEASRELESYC
Method in brief: as §1

[1] = 0.1% bovine casein and 1.0% human serum albumin, 37° C., geometric mean
[2] = cAMP, incubated at 37° C., 0.1% bovine casein (no human serum albumin), geometric mean
[3] = incubated at 37° C., 0.1% bovine casein (no human serum albumin), geometric mean
[4] = HEK293, 0.1% bovine casein and 1.0% human serum albumin, 37° C., percent of maximal response to GIP(1-42)NH2
[5] = HEK293, percent of maximal response to GIP(1-42)NH2, 37° C., 0.1% bovine casein, arithmetic mean
[6] = HEK293, 0.1% bovine casein and 1.0% human serum albumin, 37° C., percent of maximal response to GLP-1(7-36)NH2
[7] = cAMP, 37° C., 0.1% bovine casein (no human serum albumin), geometric mean
[8] = 37° C., 0.1% bovine casein (no human serum albumin), geometric mean
[9] = HEK293, cAMP, 37° C., 0.1% bovine casein, percent of maximal response to GIP(1-42)NH2, arithmetic mean
[10] = cAMP, 37° C., 0.1% bovine casein (no human serum albumin)

SMILES	EC50 (hGCGR; [1]) [nM]	EC50 (hGCGR; [2]) [nM]	EC50 (hGLP-1R; [3]) [nM]	EC50 (hGIPR; 0.1% bovine casein and 1.0% human serum albumin, 37° C.) [nM]	Emax (hGIPR; [4]) [%]	Emax (hGIPR; [5]) [%]	Emax (hGLP-1R; [6]) [%]	Emax (hGLP-1R; HEK293, percent of maximal response to GLP-1(7-36)NH2, 37° C., 0.1% bovine casein, arithmetic mean) [%]	EC50 (hGIPR; cAMP, incubated at 37° C., 0.1% bovine casein (no human serum albumin)) [nM]	EC50 (hGCGR; [7]) [nM]	EC50 (hGLP-1R; [8]) [nM]	Emax (hGIPR; [9]) [%]	EC50 (hGIPR; [10]) [nM]	EC50 (hGCGR; cAMP, 37° C., 0.1% bovine casein and 1.0% human serum albumin, geometric mean (SEM, n)) [nM]	Emax (hGLP-1R; HEK293, cAMP, 37° C., 0.1% bovine casein, percent of maximal response to GLP-1(7-36)NH2, arithmetic mean) [%]	EC50 (hGLP-1R; 37° C., 0.1% bovine casein and 1.0% human serum albumin, geometric mean (SEM, n)) [nM]	Emax (hGIPR; HEK293, cAMP, 37° C., 0.1% bovine casein and 1.0% human serum albumin, percent of maximal response to GIP(1-42)NH2) [%]
CC[C@H](C)[C@H](NC(=O)[C@H](CC(C)C)NC(=O)[C@](C)(Cc1ccc(O)cc1)NC(=O)[C@@H](CCC(=O)O)NC(=O)[C@@H](NC(=O)[C@H](Cc1ccccc1)NC(=O)[C@H](CCC(=O)O)NC(=O)C(C)(C)NC(=O)[C@H](CCC(N)=O)NC(=O)[C@H](C)NC(=O)[C@H](CCCCNC(=O)COCCOCCNC(=O)COCCOCCNC(=O)CC[C@H](NC(=O)CCCCCCCCCCCCC(=O)O)C(=O)O)NC(=O)[C@H](CCCN)NC(=O)[C@H](CC(=O)O)NC(=O)[C@H](CC(C)C)NC(=O)[C@](C)(CC(C)C)NC(=O)[C@@H](NC(=O)[C@H](CO)NC(=O)[C@](C)(Cc1ccccc1F)NC(=O)[C@H](CC(=O)O)NC(=O)[C@H](CO)NC(=O)[C@@H](NC(=O)[C@](C)(Cc1ccccc1F)NC(=O)[C@@H](NC(=O)CNC(=O)[C@H](CCC(=O)O)NC(=O)C(C)(C)NC(=O)[C@@H](N)Cc1ccc(O)cc1)[C@@H](C)O)[C@@H](C)O)[C@@H](C)CC)[C@@H](C)CC)C(=O)N[C@@H](CCC(=O)O)C(=O)NCC(=O)NCC(=O)N[C@@H](CCCCNC(=O)COCCOCCNC(=O)COCCOCCNC(=O)CC[C@H](NC(=O)CCCCCCCCCCCCC(=O)O)C(=O)O)C(=O)N[C@@H](CO)C(=O)N[C@@H](CO)C(=O)NCC(=O)N[C@@H](C)C(=O)N1CCC[C@H]1C(=O)N1CCC[C@H]1C(=O)N1CCC[C@H]1C(=O)N[C@@H](CO)C(N)=O [Example 87]	> 9950	> 9950	1.34	4.84	89.2	84.7	–	–	–	–	–	–	–	–	–	–	–
CC[C@H](C)[C@H](NC(=O)[C@H](CCCN)NC(=O)[C@H](CC(=O)O)NC(=O)[C@H](CC(C)C)NC(=O)[C@](C)(CC(C)C)NC(=O)[C@@H](NC(=O)[C@H](CO)NC(=O)[C@H](Cc1ccncc1)NC(=O)[C@H](CC(=O)O)NC(=O)[C@H](CO)NC(=O)[C@@H](NC(=O)[C@](C)(Cc1ccccc1F)NC(=O)[C@@H](NC(=O)CNC(=O)[C@H](CCC(=O)O)NC(=O)C(C)(C)NC(=O)[C@@H](N)Cc1ccc(O)cc1)[C@@H](C)O)[C@@H](C)O)[C@@H](C)CC)C(=O)N[C@@H](C)C(=O)N[C@@H](CCC(N)=O)C(=O)NC(C)(C)C(=O)N[C@@H](CCCCNC(=O)COCCOCCNC(=O)COCCOCCNC(=O)COCCOCCNC(=O)CC[C@H](NC(=O)CCCCCCCCCCCCC(=O)O)C(=O)O)C(=O)N[C@@H](Cc1ccccc1)C(=O)N[C@H](C(=O)N[C@H](CCC(=O)O)C(=O)N[C@@](C)(Cc1ccc(O)cc1)C(=O)N[C@@H](CC(C)C)C(=O)N[C@H](C(=O)N[C@@H](CCC(=O)O)C(=O)NCC(=O)NCC(=O)N1CCC[C@H]1C(=O)N[C@@H](CO)C(=O)N[C@@H](CO)C(=O)NCC(=O)N[C@@H](C)C(=O)N1CCC[C@H]1C(=O)N1CCC[C@H]1C(=O)N1CCC[C@H]1C(=O)N[C@@H](CO)C(=O)N[C@@H](CCCCNC(=O)COCCOCCNC(=O)COCCOCCNC(=O)COCCOCCNC(=O)CC[C@H](NC(=O)CCCCCCCCCCCCC(=O)O)C(=O)O)C(N)=O)[C@@H](C)CC)[C@@H](C)CC [Example 228]	> 9950	> 9950	1.34	–	83.3	110	119	91.1	0.0232	–	–	–	–	–	–	–	–
CC[C@H](C)[C@H](NC(=O)[C@H](CCCN)NC(=O)[C@H](CC(=O)O)NC(=O)[C@H](CC(C)C)NC(=O)[C@](C)(CC(C)C)NC(=O)[C@@H](NC(=O)[C@](C)(CO)NC(=O)[C@@H](NC(=O)[C@H](CC(=O)O)NC(=O)[C@H](CO)NC(=O)[C@@H](NC(=O)[C@](C)(Cc1ccccc1F)NC(=O)[C@@H](NC(=O)CNC(=O)[C@H](CCC(=O)O)NC(=O)C(C)(C)NC(=O)[C@@H](N)Cc1ccc(O)cc1)[C@@H](C)O)[C@@H](C)O)C(C)C)[C@@H](C)CC)C(=O)N[C@@H](C)C(=O)N[C@@H](CCC(N)=O)C(=O)NC(C)(C)C(=O)N[C@@H](CCC(=O)O)C(=O)N[C@@H](Cc1ccccc1)C(=O)N[C@H](C(=O)N[C@@H](CCCCNC(=O)COCCOCCNC(=O)COCCOCCNC(=O)CC[C@H](NC(=O)CCCCCCCCCCCCC(=O)O)C(=O)O)C(=O)N[C@@](C)(Cc1ccc(O)cc1)C(=O)N[C@@H](CC(C)C)C(=O)N[C@H](C(=O)N[C@@H](CCCCNC(=O)COCCOCCNC(=O)COCCOCCNC(=O)CC[C@H](NC(=O)CCCCCCCCCCCCC(=O)O)C(=O)O)C(=O)NCC(=O)NCC(=O)N1CCC[C@H]1C(=O)N[C@@H](CO)C(=O)N[C@@H](CO)C(=O)NCC(=O)N[C@@H](C)C(=O)N1CCC[C@H]1C(=O)N1CCC[C@H]1C(=O)N1CCC[C@H]1C(=O)N[C@@H](CO)C(N)=O)[C@@H](C)CC)[C@@H](C)CC [Example 305]	> 9950	–	–	–	95.4	–	125	–	–	> 9950	0.629	105	0.0289	–	–	–	–
CC[C@H](C)[C@H](NC(=O)[C@H](CC(C)C)NC(=O)[C@](C)(Cc1ccc(O)cc1)NC(=O)[C@@H](CCC(=O)O)NC(=O)[C@@H](NC(=O)[C@H](Cc1ccccc1)NC(=O)[C@H](CCC(=O)O)NC(=O)C(C)(C)NC(=O)[C@H](CCC(N)=O)NC(=O)[C@H](C)NC(=O)[C@H](CCCCNC(=O)COCCOCCNC(=O)COCCOCCNC(=O)CCCCCCCCCCCCC(=O)O)NC(=O)[C@H](CCCN)NC(=O)[C@H](CC(=O)O)NC(=O)[C@H](CC(C)C)NC(=O)[C@](C)(CC(C)C)NC(=O)[C@@H](NC(=O)C(C)(C)NC(=O)[C@H](Cc1ccc(O)cc1)NC(=O)[C@H](CC(=O)O)NC(=O)[C@H](CO)NC(=O)[C@@H](NC(=O)[C@](C)(Cc1ccccc1F)NC(=O)[C@@H](NC(=O)CNC(=O)[C@H](CCC(=O)O)NC(=O)C(C)(C)NC(=O)[C@@H](N)Cc1ccc(O)cc1)[C@@H](C)O)[C@@H](C)O)[C@@H](C)CC)[C@@H](C)CC)C(=O)N[C@@H](CCCCNC(=O)COCCOCCNC(=O)COCCOCCNC(=O)CCCCCCCCCCCCC(=O)O)C(=O)NCC(=O)NCC(=O)N1CCC[C@H]1C(=O)N[C@@H](CO)C(=O)N[C@@H](CO)C(=O)NCC(=O)N[C@@H](C)C(=O)N1CCC[C@H]1C(=O)N1CCC[C@H]1C(=O)N1CCC[C@H]1C(=O)N[C@@H](CO)C(N)=O [Example 388]	–	–	–	–	–	–	–	–	–	> 9950	0.292	98.3	0.0103	> 9950	95.4	6.31	82.1
